Laboratory results reported in ChEMBL document CHEMBL5058564, “EUbOPEN Chemogenomics Library 2 (Incucyte)” (2022).

What was measured:
Type in all cases: toxicity, cell-based
[1] = system: U2OS; assay: Incucyte cell viability with U2OS; conditions: human, 10 µM, compound concentration 10 uM
[2] = system: HEK-293T; assay: Incucyte cell viability with HEK293T; conditions: human, 10 µM, compound concentration 10 uM
[3] = system: Fibroblast; assay: Incucyte cell viability with human fibroblast; conditions: 10 µM, compound concentration 10 uM
[4] = 0 h, replicate number 1, timepoint 0 hours
[5] = 6 h, replicate number 1, timepoint 6 hours
[6] = 12 h, replicate number 1, timepoint 12 hours
[7] = 18 h, replicate number 1, timepoint 18 hours
[8] = 24 h, replicate number 1, timepoint 24 hours
[9] = 0 h, replicate number 2, timepoint 0 hours
[10] = 6 h, replicate number 2, timepoint 6 hours
[11] = 12 h, replicate number 2, timepoint 12 hours
[12] = 18 h, replicate number 2, timepoint 18 hours
[13] = 24 h, replicate number 2, timepoint 24 hours
Note: unitless GR value; below 1 slowed growth and below 0 cell loss.

Compound | Growth Rate [1, 4] | Growth Rate [1, 5] | Growth Rate [1, 6] | Growth Rate [1, 7] | Growth Rate [1, 8] | Growth Rate [2, 4] | Growth Rate [2, 9] | Growth Rate [2, 5] | Growth Rate [2, 8] | Growth Rate [3, 4] | Growth Rate [3, 9] | Growth Rate [3, 5] | Growth Rate [3, 10] | Growth Rate [3, 6] | Growth Rate [3, 11] | Growth Rate [3, 7] | Growth Rate [3, 8] | Growth Rate [2, 6] | Growth Rate [2, 7] | Growth Rate [2, 13] | further results
CCC(=O)NCC[C@@H]1CCc2ccc3c(c21)CCO3 [RAMELTEON] | -0.01 | 0.45 | 0.54 | 0.88 | 0.82 | 0.12 | -0.36 | 0.99 | 0.86 | 0.51 | 0.17 | 0.76 | 0.51 | 0.96 | 0.73 | 0.96 | 0.77 | – | – | – | Growth Rate [3, 12]: 0.83; Growth Rate [3, 13]: 0.89
Nc1cnc(N2CCc3cc(S(=O)(=O)Nc4c(F)cc(Cl)cc4F)cc(N4CCCC4=O)c32)nc1 [TP-020n] | -0.04 | 0.53 | 0.72 | 0.65 | 0.66 | 0.54 | 0.76 | 0.61 | 0.74 | 0.01 | -0.22 | – | – | – | – | – | 0.92 | 0.37 | 0.61 | 0.77 | Growth Rate [2, 11]: 0.71; Growth Rate [2, 12]: 0.9
Cc1nc2ccc(Oc3ccc(F)cc3)cc2c(=O)n1C[C@H]1CCCN(C(C)C)C1.Cl | – | -0.6 | – | – | – | – | – | 0.01 | -0.2 | – | – | -0.24 | -0.65 | -0.26 | -0.42 | -0.42 | -0.38 | -0.18 | -0.23 | -0.05 | Growth Rate [1, 10]: 0.98; Growth Rate [1, 11]: 0.97; Growth Rate [1, 12]: 0.96; Growth Rate [2, 10]: 0.52; Growth Rate [2, 11]: 0.29; Growth Rate [2, 12]: 0.13; Growth Rate [3, 12]: -0.21; Growth Rate [3, 13]: -0.28
N=C(N)NCCC[C@@H](NC(=O)C(c1ccccc1)c1ccccc1)C(=O)NCc1ccc(CNC(N)=O)cc1.O=C(O)C(F)(F)F.O=C(O)C(F)(F)F | – | 0.1 | 0.58 | 0.59 | 0.82 | – | – | 1 | 0.98 | -0.19 | – | 0.44 | 0.45 | 0.58 | 0.67 | 0.41 | 0.52 | 0.8 | 0.83 | – | Growth Rate [1, 9]: 0.75; Growth Rate [1, 10]: 0.61; Growth Rate [1, 11]: 0.93; Growth Rate [1, 12]: 0.96; Growth Rate [1, 13]: 0.83; Growth Rate [2, 10]: 0.41
CC1=C(C)C(=O)C(C(C)(C)CC(=O)N(CCCCSC[C@H]2O[C@@H](n3cnc4c(N)ncnc43)[C@H](O)[C@@H]2O)Cc2cccc(-c3ccc(Cl)cc3)c2)=C(C)C1=O | – | 0.21 | 0.36 | 0.51 | 0.53 | -0.9 | -1 | 0.57 | 0.16 | 0.23 | -0.71 | -0.29 | 0.84 | 0.78 | – | – | – | 0.2 | 0.17 | – | Growth Rate [1, 10]: 0.98; Growth Rate [1, 11]: 0.93; Growth Rate [1, 12]: 0.91; Growth Rate [1, 13]: 0.95
COc1cc(N2CCN(C)CC2)ccc1Nc1nccc(-c2cn(C)c3cnccc23)n1 | 0.8 | – | – | – | – | -0.61 | -0.28 | – | – | -0.91 | -0.24 | – | – | – | – | – | – | – | – | 0.95 | Growth Rate [1, 9]: -1; Growth Rate [1, 13]: 0.96
